Values after ≈ are worked out from the molar mass of the structure shown. Values joined by “and” are separate entries in the source; they are usually repeats but may differ in a detail not shown here. Equal entries are not always repeated.
Tests used:
[1] = physchem
[2] = system: methicillin-resistant Staphylococcus aureus (MRSA) 63718; test: In vitro antibacterial evaluation, broth microdilution MIC, MRSA isolate 63718; assay type: cell-based; conditions: clinical isolate MRSA 63718
[3] = system: S. aureus ATCC 29213; test: MTT assay of bacterial viability; conditions: Staphylococcus aureus, ATCC29213, read-out: viability of S. aureus ATCC 29213 (MTT)
[4] = system: S. aureus and MRSA isolates; test: Minimum bactericidal concentration (MBC) by subcultivation
[5] = RP-HPLC, 72:28 MeOH:H2O
[6] = Lipophilicity determination by RP-TLC; assay type: physicochemical; parameters: key to RM (MeOH:H2O): RM = log(1/RF - 1), from RP-18 TLC; conditions: for RM (MeOH:H2O): 72:28 MeOH:H2O; for RM (pH 7.4): 72:28 MeOH:NaOAc buffer (pH 7.4)
Protocol: RM values were determined from the RP-18 TLC measurements. […] The volatiles were carefully evaporated, and the plate was developed by MeOH (100%) or MeOH: H2O-HPLC (72:28 v/v) or MeOH: NaOAc buffer, pH 7.4 (72:28 v/v). After drying, the spots were visualized under UV (λ = 365 nm). RM data were obtained from equation: RM = log(1/RF-1). Each experiment was repeated three times.

[7] = system: Staphylococcus aureus ATCC 29213; test: In vitro antibacterial evaluation, broth microdilution MIC, reference strain; assay type: cell-based; conditions: S. aureus ATCC 29213
[8] = system: Mycobacterium tuberculosis H37Ra/ATCC 25177; test: In vitro antimycobacterial evaluation; assay type: cell-based; conditions: M. tuberculosis H37Ra
From the text: Isoniazid (Sigma) was used as the standard.

[9] = system: methicillin-resistant Staphylococcus aureus (MRSA) SA 630; test: In vitro antibacterial evaluation, broth microdilution MIC, MRSA isolate SA 630; assay type: cell-based; conditions: clinical isolate MRSA SA 630
[10] = system: THP1-Blue™ NF-κB cell line; test: In vitro cell viability assay (WST-1); assay type: cell-based; conditions: Homo sapiens; THP1-Blue NF-κB cells, 24 h incubation, WST-1, mean ± SEM, n = 6; read-out: Tox IC50 ± SEM
Protocol: The cytotoxic effect of the tested compounds was specified on THP1-Blue™ NF-κB cell line (Invivogen; San Diego, CA, USA), as described previously. […] The final concentration of DMSO was 0.1% (v/v) in each well. The viability analysis was performed after 24 h incubation with the tested substances using the WST-1 Cell Proliferation Reagent kit (Roche Diagnostics, Basel, Switzerland) according to the manufacturer’s manual. […] The IC50 values were calculated by four-parameter logistic (4PL) analysis from obtained viability curves by GraphPad Prism 8.0.1 (San Diego, CA, USA) software.

[11] = system: NF-κB in THP1-Blue™ NF-κB cells; test: Determination of NF-κB activity after LPS stimulation (Quanti-Blue); assay type: cell-based, human; conditions: 1 µM compound, LPS 1 µg/mL
Protocol: To evaluate the anti-inflammatory potential of novel compounds, their ability to attenuate the lipopolysaccharide (LPS)-activated pro-inflammatory transcription nuclear factor (NF)-κB was measured as was described previously. Briefly, THP1-Blue™ NF-κB cells were pretreated by tested compounds dissolved in DMSO in the non-toxic concentration 1 µM for 1 h. After LPS (1 µg/mL) stimulation, the NF-κB activity was evaluated by Quanti-Blue medium (Invivogen) according to the manufacturer’s instructions. The results from 3 independent experiments performed in triplicate (n = 9) were analyzed by GraphPad Prism 8.0.1 software. The outlaying values were excluded by ROUT algorithms (Q = 5%).
Figure 1 Effect of tested compounds on activity of transcription factor NF-κB. […] Then, lipopolysaccharide (LPS) 1 µg/mL was added to trigger the NF-κB activation. The activity of NF-κB was measured 24 h after LPS stimulation using QuantiBlue™ assay. The graph represents mean ± SEM (n = 9). […] Groups were compared with the help of the one-way ANOVA test followed by Fisher’s LSD multiple comparison test. * indicates statistical significance (p < 0.05) to DMSO group; ** indicates statistical significance (p < 0.01) to DMSO group; *** indicates statistical significance (p < 0.001) to DMSO group; **** indicates statistical significance (p < 0.0001) to DMSO group. CA—cinnamic acid.

[12] = Staphylococcus aureus, ATCC29213
[13] = 1 h pretreatment, 24 h, vs DMSO group

SMILES | chromatographic logD ([1]; pH 6.5) | chromatographic logD ([1]; pH 7.4) | MIC [2] [µM] | viability at 25.9 µM [3] [%] | MBC ([4]; S. aureus and MRSA isolates, compared with MIC) | bacteriostatic/bactericidal classification ([4]; bactericidal if MBC/MIC ≤4) | Logk [5] | RM (MeOH:H2O) [6] | RM (pH 7.4) [6] | RM (100% MeOH) [6] | MIC [7] [µM] | MIC [7, 12] | MIC [8] [µM] | MIC [9] [µM] | IC50 [10] [µM] | increase of NF-κB activity [11, 13] | anti-inflammatory potential (LPS-induced NF-κB activation), in words [11] | decrease of NF-κB activity [11, 13]
O=C(/C=C/c1ccccc1)Nc1ccc(C(F)(F)F)c(F)c1 [Compound 10, (2E)-N-[3-Fluoro-4-(trifluoromethyl)phenyl]-3-phenylprop-2-enamide] | 0.61 | 0.633 | 25.9 (≈ 8.01 µg/mL) | 13.4 ± 0.1 | equal to the MIC values | bactericidal | 0.5789 | 0.7923 | 0.5960 | −0.5032 | 25.9 (≈ 8.01 µg/mL) | 8 µg/mL and 25.9 µM | > 414 | 12.9 (≈ 3.99 µg/mL) | > 20 | 10–15% |  | 
O=C(/C=C/c1ccccc1)Nc1cc(C(F)(F)F)ccc1Br [Compound 13, (2E)-N-[2-Bromo-5-(trifluoromethyl)phenyl]-3-phenylprop-2-enamide] | 0.594 | 0.616 | > 696 |  |  |  | 0.5561 | 0.7194 | 0.5619 | −0.4325 |  | > 696 µM | > 348 | > 696 | > 20 |  | insignificant anti-inflammatory potential | 
O=C(/C=C/c1ccccc1)Nc1ccc(F)cc1C(F)(F)F [Compound 14, (2E)-N-[4-Fluoro-2-(trifluoromethyl)phenyl]-3-phenylprop-2-enamide] | 0.222 | 0.243 | > 828 |  |  |  | 0.1607 | 0.3011 | 0.1330 | −0.6797 |  | > 828 µM | > 414 | > 828 | > 20 |  |  | approximately 9%
O=C(/C=C/c1ccccc1)Nc1ccc([N+](=O)[O-])c(C(F)(F)F)c1 [Compound 18, (2E)-N-[4-Nitro-3-(trifluoromethyl)phenyl]-3-phenylprop-2-enamide] | 0.51 | 0.557 | > 762 |  |  |  | 0.5004 | 0.6927 | 0.6160 | −0.4804 |  | > 762 µM | > 381 | > 762 | > 20 |  |  | approximately 9%
O=C(/C=C/c1ccccc1)Nc1c(Br)cc(F)c(Cl)c1Br [Compound 20, (2E)-N-(2,6-Dibromo-3-chloro-4-fluorophenyl)-3-phenylprop-2-enamide] | 0.37 | 0.392 | > 595 |  |  |  | 0.3139 | 0.4320 | 0.4138 | −0.5541 |  | > 595 µM | > 298 | > 595 | > 20 |  | more potent than the parental cinnamic acid | approximately 9%

From paper PMC7570544, “Biological Activities and ADMET-Related Properties of Novel Set of Cinnamanilides” (Molecules, 2020)
